Measured values taken from patent US20100240711A1, “SOLID PREPARATION COMPRISING NPYY5 RECEPTOR ANTAGONIST” (SHIONOGI & CO., LTD., priority 2007, published 2010).
≈ marks a conversion by molar mass, not a printed value.

Assay: Solubility of S-2367 in water (Japanese Pharmacopoeia, Dissolution Test, Second Solution)
Format: physicochemical
Conditions: 37 °C, pH 6.8, aqueous buffer
Text: A particularly preferable compound is trans-N-(5-trifluoromethylpyridin-2-yl)-4-(tertiarybutylsulfonylamino)cyclohexanecarboxamide (S-2367). The compound is a crystal under a room temperature.
The NPYY5 receptor antagonist of the present invention is not particularly limited as far as it is a drug which can be orally administered, but is preferably a drug having low solubility in water, so-called poorly water-soluble drug.

solubility: ~3.5 µg/mL (≈ 8.59 µM)
SMILES: CC(C)(C)S(=O)(=O)N[C@H]1CC[C@H](C(=O)Nc2ccc(C(F)(F)F)cn2)CC1 [Example S-2367, trans-N-(5-trifluoromethylpyridin-2-yl)-4-(tertiarybutylsulfonylamino)cyclohexanecarboxamide]
